# In patent publication US20130316985A1, “GPR35 Ligands And Uses Thereof” (CORNING INCORPORATED, priority 2012, published 2013):
# Entries after “also recorded” stand apart in the source; their conditions may differ. Read-outs that look alike come from different tables or passages of the source.
# Assays:
# GPR35 [1] = target: T1, GPR35 (Homo sapiens, UniProt Q9HC97); assay: Tango β-arrestin translocation gene reporter assay in U2OS-GPR35-bla cells; assay type: cell-based; parameters: TEV protease site (C); Gal4-VP16 transcription factor (C); conditions: for EC50: read-out: Potency EC50, Tango; for β-arrestin translocation (Tango) signal (in words): 2,3-DNP up to 1 mM, 3,4-DNP at 1 mM
# GPR35 [2] = target: T1, GPR35; assay: DMR agonism assay in native HT-29 cells (Epic optical biosensor); conditions: for DMR signal in HT-29 cells (in words): agonism mode
# GPR35 [3] = target: T1, GPR35
# GPR35 [4] = target: T1, GPR35; conditions: U2OS-GPR35-bla
# Source text: Tango™ GPR35-bla U2OS cells was used. This cell line stably expresses two fusion proteins: human GPR35 linked to a TEV protease site and a Gal4-VP16 transcription factor, and 13-arrestin/TEV protease fusion protein. The cell line also stably expresses the β-lactamase reporter gene under the control of a UAS response element. The activation of GPR35 by agonists leads to the recruitment of 13-arrestin/TEV protease fusion proteins to the activated GPR35. As a result, the protease cleaves the Gal4-VP16 transcription factor from the receptor, which then translocates to the nucleus and activates the expression of beta-lactamase. […] After overnight culture, the cells were stimulated with ligands for 5 hrs in a humidified 37° C./5% CO2, and then loaded with the cell permeable LiveBLAzer™ FRET B/G substrate. After the two hour incubation the coumarin:fluorescein ratio was measured using Tecan Safire II microplate reader (Männedorf, Switzerland). In the absence of beta-lactamase expression (i.e., no GPR35 activation), cells generate green fluorescence. In the presence of beta-lactamase expression upon receptor activation, the substrate is cleaved and the cells generate blue fluorescence. The coumarin:fluorescein ratio was used as a normalized reporter response.
# The U2OS-GPR35-bla cells were pretreated with ML145 for 10 min, followed by stimulation with GPR35 agonists at a fixed concentration (indicated in the legend of FIG. 5). The data represents mean±s.d. from two independent measurements, each in duplicate (n=2).
# GPR35 [5] = target: T1, GPR35; assay: cell-based
# GPR35 [6] = target: T1, GPR35; remark: listed apart in the source
# [7] = U2OS-GPR35-bla cells, β-arrestin translocation, mean ± s.d.
# [8] = HT-29, ML-145 at different doses 10 min before agonist at fixed dose
# [9] = U2OS-GPR35-bla, zaprinast maximal response in same plate = 100%, read-out: efficacy (Tango, normalized to maximal response of zaprinast)
# [10] = maximal response normalized to the zaprinast maximal response, read-out: Efficacy Tango
# [11] = maximal response normalized to the zaprinast maximal response
# [12] = maximal DMR response in HT-29 (2,5-DNP: amplitude at 50 min)
# T1 sequence (Q9HC97 whole entry, the tested form may be a part): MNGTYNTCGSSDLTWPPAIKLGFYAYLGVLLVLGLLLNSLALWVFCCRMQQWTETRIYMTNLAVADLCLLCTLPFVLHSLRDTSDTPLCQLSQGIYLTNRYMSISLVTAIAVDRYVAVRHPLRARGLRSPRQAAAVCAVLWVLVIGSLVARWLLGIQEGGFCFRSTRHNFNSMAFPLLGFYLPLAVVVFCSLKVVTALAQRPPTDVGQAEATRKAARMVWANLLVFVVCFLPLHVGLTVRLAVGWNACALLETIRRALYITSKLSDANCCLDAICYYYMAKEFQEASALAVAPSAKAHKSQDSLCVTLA
smiles,measurement,setting,value
"O=C(O)c1cc(/N=N/c2ccc(O)c(C(=O)O)c2)ccc1O (single isomer, unassigned) [olsalazine]",EC50,GPR35 [1]; [7],1.26 µM
same,"agonist type compared to zaprinast, based on maximal responses in Tango assays","GPR35 [1]; U2OS-GPR35-bla, listed as olasalazine",full agonists
same,EC50,GPR35 [2],0.0218 µM
"O=[N+]([O-])c1ccc(O)c([N+](=O)[O-])c1 [2,4-DNP, 2,4-dinitrophenol]",inhibition of the agonist-induced DMR by ML-145 (in words),GPR35 [3],partial inhibition; also recorded: partially inhibited
same,Emax,GPR35 [1]; read-out: Efficacy Tango,28 ± 1%
same,EC50,GPR35 [1],272 µM
same,Emax,"GPR35 [1]; read-out: efficacy (Tango, normalized to maximal response of zaprinast)",28%
same,Efficacy DMR,GPR35 [2],249 ± 17 pm
"O=[N+]([O-])c1cc(O)c(O)c([N+](=O)[O-])c1 [3,5-dinitrocatechol]",EC50,GPR35 [1],123 µM
COc1cccc(O)c1O [3-methoxycatechol],inhibition of the agonist-induced DMR by ML-145 (in words),GPR35 [3]; [8],can be blocked by ML-145
same,β-arrestin translocation (Tango) signal (in words),GPR35 [1]; U2OS-GPR35-bla,trigger Tango signal
same,DMR signal in HT-29 cells (in words),GPR35 [2],active
same,block of the agonist-induced Tango signal by ML-145 (in words),GPR35 [4],can be blocked by ML-15
"O=C(O)c1cc(/N=N/c2ccc(O)c(C(=O)O)c2)ccc1O [Bi-ASA, (E)-(5,5-diazene-1,2-diyl)bis(2-hydroxybenzoic acid)]","agonist type compared to zaprinast, based on maximal responses in Tango assays",GPR35 [1]; U2OS-GPR35-bla,strong partial agonist
same,EC50,GPR35 [1]; [7],1.7 µM
same,EC50,GPR35 [2],0.00209 µM
"Nc1ccc(O)c(C(=O)O)c1 [Compound 5-ASA, 5-aminosalicylic acid]",EC50,GPR35 [5],14.7 µM
same,"agonist type compared to zaprinast, based on maximal responses in Tango assays",GPR35 [1]; U2OS-GPR35-bla,weak partial agonist
same,EC50,GPR35 [1]; [7],545 µM
CCN(CC)C(=O)/C(C#N)=C/c1cc(O)c(O)c([N+](=O)[O-])c1 [Entacapone],Emax,GPR35 [1]; [9],6%
same,Emax,GPR35 [1]; [10],6 ± 1%
O=C(c1cc(O)c(O)c([N+](=O)[O-])c1)c1ccccc1F [Ro41-0960],EC50,GPR35 [6],8.66 µM
same,inhibition of the agonist-induced DMR by ML-145 (in words),GPR35 [3]; [8],partially inhibited
same,EC50,GPR35 [1]; [7],54.4 µM
same,"efficacy (Tango, normalized to maximal response of zaprinast)","GPR35 [1]; U2OS-GPR35-bla, zaprinast maximal response in same plate = 100%",13%
same,Efficacy Tango,GPR35 [1]; [11],13 ± 1 % zaprinast
same,Efficacy DMR,GPR35 [2]; [12],257 ± 16 pm
"Cc1ccc(C(=O)c2cc(O)c(O)c([N+](=O)[O-])c2)cc1 [Tolcapone, 3,4-dihydroxy-4′-methyl-5-nitrobenzophenone]",EC50,GPR35 [6],7.44 µM
same,inhibition of the agonist-induced DMR by ML-145 (in words),GPR35 [3]; [8],partially inhibited
same,inhibition of the agonist-induced DMR by ML-145 (in words),"GPR35 [3]; HT-29, ML-145 at different doses 10 min before agonist at fixed dose, listed as tolcapone",partial inhibition
same,EC50,GPR35 [1]; [7],49.2 µM
same,Emax,GPR35 [1]; [9],25%
same,Emax,GPR35 [1]; [10],25 ± 2%
same,DMR signal in HT-29 cells (in words),GPR35 [2],positive DMR with an early peak followed by a small decay to another elevated plateau
same,Efficacy DMR,GPR35 [2]; [12],400 ± 33 pm
CCCOc1ccccc1-c1nc(=O)c2[nH]nnc2[nH]1 [Zaprinast],Emax,GPR35 [1]; [9],100%
same,Efficacy Tango,GPR35 [1]; [11],100 ± 9 % zaprinast
same,Efficacy DMR,GPR35 [2]; [12],254 ± 14 pm
O=C(O)CCNC(=O)c1ccc(/N=N/c2ccc(O)c(C(=O)O)c2)cc1 [balsalazide],EC50,GPR35 [5],2.59 µM
same,"agonist type compared to zaprinast, based on maximal responses in Tango assays",GPR35 [1]; U2OS-GPR35-bla,full agonists
same,EC50,GPR35 [1]; [7],46.2 µM
CCCCCCCCOC(=O)c1cc(O)c(O)c(O)c1 [octyl gallate],inhibition of the agonist-induced DMR by ML-145 (in words),GPR35 [3]; [8],can be blocked by ML-145
same,β-arrestin translocation (Tango) signal (in words),GPR35 [1]; U2OS-GPR35-bla,trigger Tango signal
same,DMR signal in HT-29 cells (in words),GPR35 [2],active
same,block of the agonist-induced Tango signal by ML-145 (in words),GPR35 [4],can be blocked by ML-15
CCCOC(=O)c1cc(O)c(O)c(O)c1 [propyl gallate],inhibition of the agonist-induced DMR by ML-145 (in words),GPR35 [3]; [8],can be blocked by ML-145
same,β-arrestin translocation (Tango) signal (in words),GPR35 [1]; U2OS-GPR35-bla,trigger Tango signal
same,DMR signal in HT-29 cells (in words),GPR35 [2],active
same,block of the agonist-induced Tango signal by ML-145 (in words),GPR35 [4],can be blocked by ML-15
Oc1cccc(O)c1O [pyrogallol],inhibition of the agonist-induced DMR by ML-145 (in words),GPR35 [3]; [8],can be blocked by ML-145
same,β-arrestin translocation (Tango) signal (in words),GPR35 [1]; U2OS-GPR35-bla,trigger Tango signal
same,DMR signal in HT-29 cells (in words),GPR35 [2],active
same,block of the agonist-induced Tango signal by ML-145 (in words),GPR35 [4],can be blocked by ML-15
O=C(O)c1cc(/N=N/c2ccc(S(=O)(=O)Nc3ccccn3)cc2)ccc1O [sulfasalazine],EC50,GPR35 [5],2.99 µM
same,"agonist type compared to zaprinast, based on maximal responses in Tango assays",GPR35 [1]; U2OS-GPR35-bla,partial agonist
same,EC50,GPR35 [1]; [7],31.3 µM
